Measured values reported in patent publication US7972815B2, “Method of producing sugar chain using human G4 polypeptide” (Kyowa Hakko Kirin Co., Ltd., priority 1999, dated 2011).
Like-named read-outs stand apart in the source and are kept apart here.

Columns and labels:
[1] = molecular target: T1, β1,3-N-acetylglucosaminyl transferase (G4) (Homo sapiens, UniProt Q9Y2A9, R328H); experiment: Substrate specificity of G4 with unlabeled oligosaccharides (HPAE/PAD); type: biochemical; conditions: for Relative activity (%): unlabeled substrate, 37° C., 16 hours, activity on LNnT defined as 100%
T1 construct: made in house; host or cells: Sf21 insect cells infected with recombinant baculovirus from pVL1393-F2G4
T1 sequence (Q9Y2A9 38-372 R328H): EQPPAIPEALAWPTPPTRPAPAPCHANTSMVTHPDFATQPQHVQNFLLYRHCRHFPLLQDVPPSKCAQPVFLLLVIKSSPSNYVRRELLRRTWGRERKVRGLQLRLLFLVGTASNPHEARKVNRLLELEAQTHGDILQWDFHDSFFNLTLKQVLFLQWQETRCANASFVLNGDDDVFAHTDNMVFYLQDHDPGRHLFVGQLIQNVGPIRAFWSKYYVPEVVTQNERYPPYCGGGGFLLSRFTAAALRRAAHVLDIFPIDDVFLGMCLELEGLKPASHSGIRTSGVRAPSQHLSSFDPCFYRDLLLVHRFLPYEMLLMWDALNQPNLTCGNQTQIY
Description: The reaction using the glycosyltransferase was carried out as follows. The reaction was carried out at 37° C. for 16 hours in 40 μl of an assay solution [50 mmol/l MOPS (pH 7.5), 5 mmol/l UDP-GlcNAc (SIGMA), 5 mmol/l MnCl2, […] and 10 μl of the above eluate]. Next, the reaction solution was treated at 100° C. for 5 minutes and then centrifuged at 10,000×g for 20 minutes to obtain the supernatant, and a portion thereof was analyzed using HPAE/PAD (High Performance Anion Pulsed Amperometoric Detection; manufactured by DIONEX). The specific method was carried out in the usual way [Anal. Biochem., 189, 151 (1990), J. Biol. Chem., 273, 433 (1998)].
As substrates, the following unlabeled oligosaccharides were used: lactose (Galβ1-4Glc), N-acetyllactosamine (Galβ1-4GlcNAc, hereinafter referred to as “LacNAc” in some cases), LNnT, LNT and lacto-N-neohexaose (Galβ1-4GlcNACβ1-3Galβ1-4GlcNAcβ1-3Galβ1-4Glc, hereinafter referred to as “LNnH”).
For each substrate, the reaction was carried using the assay solution with or without UDP-GlcNAc (sugar donor), and then HPLC was carried out and peaks appeared only in the assay solution containing UDP-GlcNAc were defined as products.
In identifying the product, coincidence of its elution time with that of a standard sugar chain was used as the index. As the standard sugar chains, GlcNAcβ1-3Galβ1-4Glc, GlcNAcβ1-3Galβ1-4GlcNAc and GlcNAcβ1-3Galβ1-4GlcNAcβ1-3Galβ1-4Glc were used.

β3GnT = molecular target: T2, β3GnT (Homo sapiens, UniProt Q9NY97); conditions: reported values, Proc. Natl. Acad. Sci. USA, 96, 406 (1999), cited from earlier work
T2 sequence (Q9NY97 1-397): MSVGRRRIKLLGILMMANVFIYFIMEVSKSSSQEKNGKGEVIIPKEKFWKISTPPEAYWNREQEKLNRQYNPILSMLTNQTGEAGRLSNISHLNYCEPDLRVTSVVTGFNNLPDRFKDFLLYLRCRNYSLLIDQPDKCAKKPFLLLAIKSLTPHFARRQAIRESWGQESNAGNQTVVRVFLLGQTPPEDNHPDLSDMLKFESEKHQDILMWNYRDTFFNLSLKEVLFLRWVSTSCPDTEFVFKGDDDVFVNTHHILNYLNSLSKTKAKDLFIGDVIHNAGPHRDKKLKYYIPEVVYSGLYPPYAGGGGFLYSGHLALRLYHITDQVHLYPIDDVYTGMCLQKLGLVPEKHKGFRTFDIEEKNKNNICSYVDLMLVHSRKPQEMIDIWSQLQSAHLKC

| SMILES | conversion ratio of the substrate into the product ([1]; unlabeled LNnT as substrate) | Relative activity (%) [1] | Relative activity (%) β3GnT (β3GnT; Table 4) | Relative activity (%) β3GnT (β3GnT; Table 6) |
| --- | --- | --- | --- | --- |
| CC(=O)N[C@H]1[C@H](O[C@H]2[C@@H](O)[C@@H](CO)O[C@@H](O[C@H]3[C@H](O)[C@@H](O)C(O)O[C@@H]3CO)[C@@H]2O)O[C@H](CO)[C@@H](O[C@@H]2O[C@H](CO)[C@H](O)[C@H](O)[C@H]2O)[C@@H]1O (mixture of isomers) [LNnT, lacto-N-neotetraose] | 1.7% | 100% | 100% | 100% |
| CC(=O)N[C@H]1[C@H](O[C@H]2[C@@H](O)[C@@H](CO)O[C@@H](O[C@H]3[C@H](O)[C@@H](O)C(O)O[C@@H]3CO)[C@@H]2O)O[C@H](CO)[C@@H](O)[C@@H]1O[C@@H]1O[C@H](CO)[C@H](O)[C@H](O)[C@H]1O (stereo partly shown) [LNT, lacto-N-tetraose] |  | 114% | 6% | 6% |
